Reference: PubChem BioAssay (NCI)
Several values for one entry are separate records, joined by “and”; a condition that tells them apart may be missing. Equal values may be shown once.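 Interpolation was linear, between the two tested concentrations surrounding the appropriate level; five concentrations were tested over 48 hours in 96-well plates. GI50 = concentration required for 50% inhibition of growth. TGI is the concentration that stops growth completely.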

How the values were obtained:
Assay in all cases: NCI-60 cell line screen, 48 h
MALME-3M melanoma = tested on: MALME-3M melanoma
MCF7 breast = tested on: MCF7 breast
MDA-MB-231 breast = tested on: MDA-MB-231 breast
NCI-H23 lung = tested on: NCI-H23 lung
NCI/ADR-RES ovarian = tested on: NCI/ADR-RES ovarian
OVCAR-4 ovarian = tested on: OVCAR-4 ovarian
PC-3 prostate = tested on: PC-3 prostate
SK-MEL-28 melanoma = tested on: SK-MEL-28 melanoma
SK-MEL-5 melanoma = tested on: SK-MEL-5 melanoma
SNB-19 CNS = tested on: SNB-19 CNS

| Structure (SMILES) | GI50 (MALME-3M melanoma) | TGI (MALME-3M melanoma) | GI50 (MCF7 breast) | TGI (MCF7 breast) | GI50 (MDA-MB-231 breast) | TGI (MDA-MB-231 breast) | GI50 (NCI-H23 lung) | TGI (NCI-H23 lung) | GI50 (NCI/ADR-RES ovarian) | TGI (NCI/ADR-RES ovarian) | GI50 (OVCAR-4 ovarian) | TGI (OVCAR-4 ovarian) | GI50 (PC-3 prostate) | TGI (PC-3 prostate) | GI50 (SK-MEL-28 melanoma) | TGI (SK-MEL-28 melanoma) | GI50 (SK-MEL-5 melanoma) | TGI (SK-MEL-5 melanoma) | GI50 (SNB-19 CNS) | TGI (SNB-19 CNS) |
| --- | --- | --- | --- | --- | --- | --- | --- | --- | --- | --- | --- | --- | --- | --- | --- | --- | --- | --- | --- | --- |
| COc1cc(C2C(C#N)=C(N)OC3=C2C(=O)c2ccccc2C3=O)cc(OC)c1OC (stereo unspecified) | 1.18 µM | 13.7 µM | 0.422 µM | 16.1 µM | 3.53 µM | 41.7 µM | 0.713 µM | 4.34 µM | 3.23 µM | 22.5 µM | 3.45 µM | 12.5 µM | 0.577 µM | > 100 µM | 6.72 µM | 22.9 µM | 0.439 µM | 1.81 µM | 11.2 µM | > 100 µM |
| COc1ccc(/C=C\c2cc(OC)c(OC)c(OC)c2)c(NS(=O)(=O)c2ccc(C)cc2)c1O | 16.8 µM | > 100 µM | 0.0333 µM | > 39.2 µM | 0.0516 µM | 29.9 µM | 0.0451 µM | 49.6 µM | 0.169 µM | 14.7 µM | 0.233 µM | > 100 µM | 0.04 µM | > 100 µM | 0.602 µM | > 96.2 µM | 0.0359 µM | 0.195 µM | 0.0549 µM | > 100 µM |
| COC(=O)CCC1=C(C)c2cc3[n-]c(cc4nc(cc5[n-]c(cc1n2)c(CCC(=O)OC)c5C)C=C4C)cc3C.[Cd+2] | 2.55 µM | 7.58 µM | 2.66 µM | 11.9 µM | 7.28 µM | 31.4 µM | 3.03 µM | 16.7 µM | 39.8 µM | > 100 µM | 2.35 µM | 7.14 µM | 4.68 µM | 29.3 µM | 4.69 µM | 21.2 µM | 1.14 µM | 2.83 µM | 25.6 µM | > 100 µM |
| CC[C@H](C)[C@H](NC(=O)C12C3C4C1C1C2C3C41NC(C)=O)C(=O)N(C)[C@H](C[C@@H](OC(C)=O)c1nc(C(=O)N[C@@H](Cc2ccccc2)C[C@H](C)C(=O)OC)cs1)C(C)C (stereo partly specified) |  | > 14.3 µM | 0.0503 µM | > 14.3 µM | 0.435 µM | > 14.3 µM | 0.884 µM | > 14.3 µM | > 14.3 µM | > 14.3 µM | 1.38 µM | > 14.3 µM | 0.582 µM | > 14.3 µM | > 3.7 µM | > 14.3 µM | 0.152 µM | 2.98 µM | 0.578 µM | > 14.3 µM |
| O=[N+]([O-])c1ccc2c(N=Nc3c(O)ccc4ccccc34)c(O)cc(S(=O)(=O)O)c2c1 | 50.1 µM | 40.3 µM and > 100 µM |  | > 100 µM | > 100 µM | 50 µM and > 100 µM | 49.8 µM | 50 µM and > 100 µM | 40.6 µM | 33.4 µM and > 100 µM |  | 50 µM | 34.5 µM | 50 µM and > 100 µM | 32.5 µM | 50 µM and > 100 µM | 46.7 µM | 50 µM and > 100 µM | 19.3 µM | 50 µM and > 100 µM |
| CC(=O)Oc1cccc2c1C(=O)c1c(OC(C)=O)cc(C)cc1C2=O |  | > 100 µM |  | > 100 µM |  | > 100 µM |  | > 100 µM |  | > 100 µM |  | > 100 µM |  | > 100 µM |  | > 100 µM |  | > 100 µM |  | > 100 µM |
| COc1ccc([C@H]2O[C@@H](CO)C[C@]2(O)c2ccc(OC)cc2)cc1 | > 100 µM | > 100 µM | > 100 µM | > 100 µM | > 100 µM | > 100 µM | > 100 µM | > 100 µM | > 100 µM | > 100 µM | > 100 µM | > 100 µM | > 100 µM | > 100 µM | > 100 µM | > 100 µM | > 100 µM | > 100 µM | > 100 µM | > 100 µM |
| O=C1c2cc(CCl)sc2C(=O)c2ccsc21 |  | 0.0781 µM |  | 0.406 µM |  | 0.588 µM |  | 0.136 µM |  | 0.468 µM |  | 0.336 µM |  | 0.839 µM |  | 0.149 µM |  | 0.0821 µM |  | 0.527 µM |
| O=C1/C(=C/c2cccs2)CCC/C1=C\c1cccs1 | > 48.8 µM | > 100 µM | 0.529 µM | > 100 µM | 44.6 µM | > 100 µM | > 83.8 µM | > 100 µM | 50.9 µM | > 100 µM | 14.6 µM | 45.2 µM | 37.7 µM | > 100 µM | > 72.2 µM | > 100 µM | > 100 µM | > 100 µM | > 54.1 µM | > 100 µM |
| CN(C)c1ccc(/C=C/c2ccnc3ccccc23)cc1 | 11.2 µM | > 100 µM and 55.4 µM | 0.922 µM | > 100 µM and 44.4 µM | 5.36 µM | > 100 µM and 30 µM | 3.83 µM | > 100 µM and 23 µM | 2.26 µM |  | 16.8 µM | > 100 µM | 3.28 µM | > 100 µM and 46.6 µM | 9.01 µM | > 100 µM | 2.48 µM | > 100 µM and 11.7 µM | 6.56 µM | > 100 µM |
